# From US10543193B2, “Processes useful for the preparation of 1-[3-(4-bromo-2-methyl-2H-pyrazol-3-yl)-4-methoxy-phenyl]-3-(2,4-difluoro-phenyl)-urea and crystalline forms related thereto” (ARENA PHARMACEUTICALS, INC., priority 2008, dated 2020)
# “Also recorded” adds a separate entry of the source.
# Experiments:
# [1] = Methyl cellulose optimization: Form I to Form II conversion in water pastes (PXRD); assay type: physicochemical
# Procedure: In a small scintillation vial, 152.13 mg of micronized APD125 Form I, was spiked with sufficient deionized water to make a paste; the weight of the water added, 844.60 mg, was recorded, and the resulting mixture was stirred using a spatula to obtain a paste. The resulting sample, post-collection of an initial PXRD pattern, was capped, wrapped in tinfoil and stored at 40° C. until the next day, when a second PXRD pattern was obtained.
# Using another small scintillation vial, 2.1183 g of micronized APD125 Form I, was mixed with 3.3619 g of a 0.5% w/v methyl cellulose to obtain a paste, which was immediately sampled for PXRD analysis to verify starting APD125 solid-state form, post-methyl cellulose addition. The remaining sample in the scintillation vial was split into two portions, placed in capped, parafilm-wrapped scintillation vials, which were then wrapped in tinfoil and stored at 40° C. and room temperature, respectively. PXRD patterns were collected at initial (t=0), 2-day and 16-day time points for each sample.
# APD125 micronized Form I/PVP (1:8) blend, weighing 3.0081 g and containing 0.5% w/w methyl cellulose, was mixed with 3.71277 g of water to form a paste. After sampling the paste for an initial PXRD pattern, the remaining paste was split into two portions, placed in capped, parafilm-wrapped scintillation vials, which were then wrapped in tinfoil and stored at 40° C. and room temperature, respectively. PXRD patterns were collected at initial (t=0), 1-day, 7-day and 21-day time points.
# For each blend, materials were dispensed (minus magnesium stearate) into a glass vial and blended for about 5 minutes. Magnesium stearate was added and the mixture was blended an additional 2 minutes. The final blend was compacted into standard round concave tablets ( 5/16″ diameter) with a total tablet weight of 200 mg and hardness of 10 kp using a Carver press. For each batch of tablets, several were crushed using a mortar and pestle to obtain a fine powder, from which a small sample was taken for PXRD analysis to confirm the initial APD125 polymorphic form. The remaining powder was weighed into a Qorpak® bottle, and ca. 50% w/w deionized water was added. The resulting mixture was stirred using a micro-spatula to wet the powder and form a paste. A Teflon® lid was screwed on tightly, and the prepared samples were stored in a 40° C. oven.
# (§1) PXRD measurements were obtained using a Philips (PANalytical) X'Pert PRO theta/theta diffractometer (EQ 0233) equipped with an X'Celerator RTMS detector and utilizing copper Kα radiation, operating at 45 kV and 40 mA. The instrument radius was 239.5 mm, the mask filter was 20 mm, the soller slit was 0.04 radians, and a nickel filter and sample spinning were used during data acquisition. The application and instrument control software used were X'Pert Data Collector®, version 2.0c and XPERT-PRO®, version 1.6, respectively. The API-based paste samples were scanned from 5° to 40°2θ in continuous mode, using a step size of 0.0167°2θ and a counting time of 40.005 seconds. The tablet granulation samples were scanned from 2° to 15°2θ in continuous mode, using a step size of 0.0167°2θ and a counting time of 1063.625 s.
# [2] = Effect of milling and compression upon APD125 Form I (PXRD); assay type: physicochemical
# Procedure: Micronized APD125 Form I, was ground using a mortar and pestle, with samples withdrawn at 1-min, 5-min and 10-min time points for PXRD analyses to evaluate the impact of grinding upon the solid-state form of APD125 Form I. PXRD patterns were obtained pre- and post-milling. Additionally, micronized APD125 Form I, was compressed at 2 kp, 5 kp and 10 kp for 1 min per sample using a Carver press. The samples were then removed from the Carver press and lightly broken up using a mortar and pestle, prior to PXRD analysis to evaluate the impact of compression upon the solid-state form of APD125 Form I. PXRD patterns were obtained pre- and post-compression.
# as §1, with “The” for “The API-based paste”, “0.0167°2θ.” for “0.0167°2θ and a counting time of 40.005 seconds. The tablet granulation samples were scanned from 2° to 15°2θ in continuous mode, using a step size of 0.0167°2θ and a counting time of 1063.625 s.”
# [3] = tested on: normal volunteers; assay: Afternoon nap model of insomnia in normal volunteers; assay type: in vivo, humans
# Description: Sleep onset latency was not decreased by APD125. In the afternoon nap model, APD125 decreased microarousals, the number of sleep stage shifts and number of awakenings after sleep onset.
# [4] = tested on: Healthy Adults; assay: Phase 1 trials: waking EEG; assay type: in vivo, humans
# [5] = tested on: insomnia patients; assay: Phase 2 trial: sleep maintenance; assay type: in vivo, humans
# Description: The data from the APD125 Phase 2 study are consistent with Phase 1 data and support further development of APD125 for the treatment of insomnia patients who have difficulty maintaining sleep.
"conversion to Form II (PXRD) ([1]; aqueous 0.5% w/w methyl cellulose, 40° C., after 16 days)","PXRD pattern (FIG. 8 legend) ([1]; aqueous 0.5% w/w methyl cellulose, room temperature and 40° C., after 16 days)",time to conversion to Form II (PXRD) ([1]; paste in water alone at 40° C.) [h],PXRD pattern (FIG. 9 legend) ([1]; paste in water alone at room temperature and 40° C. after 24 h),"conversion to Form II (PXRD) ([1]; suspended in aqueous 0.5% w/w methyl cellulose, room temperature, 21 days)",Compound,"PXRD pattern after compression ([2]; compressed at 2 kp, 5 kp and 10 kp vs uncompressed)","PXRD pattern after grinding ([2]; mortar and pestle, 1 minute, 5 minutes and 10 minutes, listed as micronized APD125 Form I)",Sleep onset latency [3],"microarousals, number of sleep stage shifts and number of awakenings after sleep onset [3]",slow wave sleep and associated parameters ([3]; primarily during the early part of sleep),dose with maximal effects on waking EEG [4] [mg],effects on waking EEG [4],time of peak effects on waking EEG after dosing [4] [h],next day cognitive effects [5],measurements of sleep maintenance ([5]; compared to placebo)
no evidence of conversion to Form II,substantially converted to Form II,≤ 24,substantially converted to Form II,did not convert to Form II,"COc1ccc(NC(=O)Nc2ccc(F)cc2F)cc1-c1c(Br)cnn1C [APD125 Form I, 1-[3-(4-bromo-2-methyl-2H-pyrazol-3-yl)-4-methoxy-phenyl]-3-(2,4-difluoro-phenyl)-urea]",consistent with APD125 Form I; also recorded: all substantially comprise Form I,No significant changes in the PXRD patterns; also recorded: all substantially comprise Form I,,,,,,,,
,,,,,"COc1ccc(NC(=O)Nc2ccc(F)cc2F)cc1-c1c(Br)cnn1C [Compound I, 1-[3-(4-bromo-2-methyl-2H-pyrazol-3-yl)-4-methoxy-phenyl]-3-(2,4-difluoro-phenyl)-urea]",,,not decreased,decreased,increased slow wave sleep and associated parameters in a dose-dependent manner,40 to 80,vigilance-lowering effects,2 to 4,without any limiting next day cognitive effects,statistically significant improvements
